Data: patent publication US11673894B2, “Imidazopyrimidines and triazolopyrimidines as A2A / A2B inhibitors” (Incyte Corporation, priority 2018, dated 2023)

Experiments:
Adenosine A2A receptor = Adenosine A2A receptor (Homo sapiens (Human), UniProt P29274); assay: A2A Tag-lite HTRF Assay; settings: Tag-lite Adenosine A2A labeled cells; A2A Receptor Red antagonist fluorescent ligand 12.5 nM; one-site competitive binding model; read-out: A2A_Ki
From the text: The final concentration of DMSO was 1%.

[1] = target: human adenosine A2B receptor (Homo sapiens (Human), UniProt P29275); assay: Adenosine A2B Receptor Cyclic AMP GS Assay; type: cell-based; settings: HEK-293 cells expressing human A2B receptor; agonist NECA at 12 nM; cAMP accumulation (FRET); read-out: A2B_cAMP_EC50
Sequence of human adenosine A2B receptor (P29275 whole entry): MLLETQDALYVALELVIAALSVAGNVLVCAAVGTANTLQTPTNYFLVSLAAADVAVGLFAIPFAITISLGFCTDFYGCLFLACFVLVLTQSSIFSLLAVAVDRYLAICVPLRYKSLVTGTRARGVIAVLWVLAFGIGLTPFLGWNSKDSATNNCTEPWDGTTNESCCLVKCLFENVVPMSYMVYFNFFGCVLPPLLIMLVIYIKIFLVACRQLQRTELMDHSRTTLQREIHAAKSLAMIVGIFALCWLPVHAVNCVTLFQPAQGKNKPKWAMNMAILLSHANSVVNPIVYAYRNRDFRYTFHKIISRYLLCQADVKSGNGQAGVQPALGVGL
Method: Stably transfected HEK-293 cells expressing the human adenosine A2B receptor (Perkin Elmer) were maintained in MEM culture medium with 10% FBS and 100 μg/ml Geneticin (Life Technologies). 18 to 24 hours prior to assay, geneticin was removed from culture. The cisbio cAMP-GS Dynamic kit utilizing the FRET (Fluorescence Resonance Energy Transfer) technology was used to measure cAMP accumulation in the cells. Compounds of the present disclosure at an appropriate concentration were mixed with 10000 cells/well in white 96 well half area plates (Perkin Elmer) for 30 min at RT gently shaking. Agonist, NECA (R&D Technologies) at 12 nM was added to each well for 60 min at RT gently shaking. Detection reagents, d2-labeled cAMP (acceptor) and anti-cAMP cryptate (donor) were added to each well for 60 min at RT gently shaking. Plates were read on Pherastar (BMG Labtech), fluorescence ratio 665/620 was calculated and EC50 determination was performed by fitting the curve of percent of control versus the log of the compound concentration using GraphPad Prism.

Sequence of Adenosine A2A receptor (P29274 whole entry): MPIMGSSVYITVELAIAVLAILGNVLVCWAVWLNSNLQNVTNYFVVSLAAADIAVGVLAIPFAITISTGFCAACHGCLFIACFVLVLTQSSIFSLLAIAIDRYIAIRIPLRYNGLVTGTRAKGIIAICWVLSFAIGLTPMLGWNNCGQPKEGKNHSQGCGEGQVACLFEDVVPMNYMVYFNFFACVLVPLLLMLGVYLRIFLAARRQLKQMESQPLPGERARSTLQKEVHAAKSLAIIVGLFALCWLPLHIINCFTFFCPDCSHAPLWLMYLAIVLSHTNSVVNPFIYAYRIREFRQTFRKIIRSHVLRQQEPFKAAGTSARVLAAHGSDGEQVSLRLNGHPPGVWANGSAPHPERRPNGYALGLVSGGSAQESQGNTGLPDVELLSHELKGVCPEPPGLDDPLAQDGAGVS

`CCn1cc(-c2c(-c3cccc(C#N)c3)nc(N)n3cc(C(=O)Nc4cnn(CCO)c4)nc23)ccc1=O` [Example 25, 5-Amino-7-(3-cyanophenyl)-8-(1-ethyl-6-oxo-1,6-dihydropyridin-3-yl)-N-(1-(2-hydroxyethyl)-1H-pyrazol-4-yl)imidazo[1,2-c]pyrimidine-2-carboxamide] showed a Ki (Adenosine A2A receptor) of under 10 nM and an EC50 [1] of 100 to 1000 nM.

`CCNC(=O)c1cn2c(N)nc(-c3cccc(C#N)c3)c(-c3ccncc3)c2n1` [Example 26, 5-Amino-7-(3-cyanophenyl)-N-ethyl-8-(pyridin-4-yl)imidazo[1,2-c]pyrimidine-2-carboxamide] was tested, and the Ki (Adenosine A2A receptor) was under 10 nM and the EC50 [1] was under 10 nM.

`CCNC(=O)c1cn2c(N)nc(-c3cccc(C#N)c3)c(-c3ccncc3C)c2n1` [Example 27, 5-Amino-7-(3-cyanophenyl)-N-ethyl-8-(3-methylpyridin-4-yl)imidazo[1,2-c]pyrimidine-2-carboxamide] gave a Ki (Adenosine A2A receptor) of under 10 nM and an EC50 [1] of 10 to 100 nM.

With `CCNC(=O)c1cn2c(N)nc(-c3cccc(C#N)c3)c(-c3ccncc3F)c2n1` [Example 28, 5-Amino-7-(3-cyanophenyl)-N-ethyl-8-(3-fluoropyridin-4-yl)imidazo[1,2-c]pyrimidine-2-carboxamide] the Ki (Adenosine A2A receptor) was under 10 nM and the EC50 [1] was under 10 nM.

Work on `CCNC(=O)c1cn2c(N)nc(-c3cccc(C#N)c3)c(-c3ccncc3Cl)c2n1` [Example 29, 5-Amino-7-(3-cyanophenyl)-N-ethyl-8-(3-chloropyridin-4-yl)imidazo[1,2-c]pyrimidine-2-carboxamide] yielded a Ki (Adenosine A2A receptor) of under 10 nM and an EC50 [1] of under 10 nM.

`CCNC(=O)c1cn2c(N)nc(-c3cccc(C#N)c3)c(-c3ccncc3OC)c2n1` [Example 30, 5-Amino-7-(3-cyanophenyl)-N-ethyl-8-(3-methoxypyridin-4-yl)imidazo[1,2-c]pyrimidine-2-carboxamide] was tested, and the Ki (Adenosine A2A receptor) was under 10 nM and the EC50 [1] was under 10 nM.

With `CCNC(=O)c1cn2c(N)nc(-c3cccc(C#N)c3)c(-c3ccncc3C#N)c2n1` [Example 31, 5-Amino-7-(3-cyanophenyl)-N-ethyl-8-(3-cyanopyridin-4-yl)imidazo[1,2-c]pyrimidine-2-carboxamide] the Ki (Adenosine A2A receptor) was under 10 nM and the EC50 [1] was 10 to 100 nM.

With `CCNC(=O)c1cn2c(N)nc(-c3cccc(C#N)c3)c(-c3ccc(C(N)=O)cc3)c2n1` [Example 32, 5-Amino-8-(4-carbamoylphenyl)-7-(3-cyanophenyl)-N-ethylimidazo[1,2-c]pyrimidine-2-carboxamide] the Ki (Adenosine A2A receptor) was under 10 nM and the EC50 [1] was 100 to 1000 nM.

In the case of `CCNC(=O)c1cn2c(N)nc(-c3cccc(C#N)c3)c(-c3cnn4ccccc34)c2n1` [Example 33, 5-Amino-7-(3-cyanophenyl)-N-ethyl-8-(pyrazolo[1,5-a]pyridin-3-yl)imidazo[1,2-c]pyrimidine-2-carboxamide], the Ki (Adenosine A2A receptor) is reported as under 10 nM and the EC50 [1] is reported as 100 to 1000 nM.

In the case of `CCNC(=O)c1cn2c(N)nc(-c3cccc(C#N)c3)c(-c3cn[nH]c3C)c2n1` [Example 34, 5-Amino-7-(3-cyanophenyl)-N-ethyl-8-(5-methyl-1H-pyrazol-4-yl)imidazo[1,2-c]pyrimidine-2-carboxamide], the Ki (Adenosine A2A receptor) is reported as under 10 nM and the EC50 [1] is reported as under 10 nM.

`CCNC(=O)c1cn2c(N)nc(-c3cccc(C#N)c3)c(-c3ccnn3CC)c2n1` [Example 35, 5-Amino-7-(3-cyanophenyl)-N-ethyl-8-(1-ethyl-1H-pyrazol-5-yl)imidazo[1,2-c]pyrimidine-2-carboxamide] showed a Ki (Adenosine A2A receptor) of under 10 nM and an EC50 [1] of under 10 nM.

`CCNC(=O)c1cn2c(N)nc(-c3cccc(C#N)c3)c(-c3ccnn3C(C)C)c2n1` [Example 36, 5-Amino-7-(3-cyanophenyl)-N-ethyl-8-(1-isopropyl-1H-pyrazol-5-yl)imidazo[1,2-c]pyrimidine-2-carboxamide] gave a Ki (Adenosine A2A receptor) of under 10 nM and an EC50 [1] of 10 to 100 nM.

In the case of `CCCn1nccc1-c1c(-c2cccc(C#N)c2)nc(N)n2cc(C(=O)NCC)nc12` [Example 37, 5-Amino-7-(3-cyanophenyl)-N-ethyl-8-(1-propyl-1H-pyrazol-5-yl)imidazo[1,2-c]pyrimidine-2-carboxamide], the Ki (Adenosine A2A receptor) is reported as under 10 nM and the EC50 [1] is reported as under 10 nM.

For `CCNC(=O)c1cn2c(N)nc(-c3cccc(C#N)c3)c(-c3ccncn3)c2n1` [Example 38, 5-Amino-7-(3-cyanophenyl)-N-ethyl-8-(pyrimidin-4-yl)imidazo[1,2-c]pyrimidine-2-carboxamide], the Ki (Adenosine A2A receptor) was under 10 nM and the EC50 [1] was 10 to 100 nM.

In the case of `CCNC(=O)c1cn2c(N)nc(-c3cccc(C#N)c3)c(-c3ccnc4c3OCCO4)c2n1` [Example 39, 5-Amino-7-(3-cyanophenyl)-8-(2,3-dihydro-[1,4]dioxino[2,3-b]pyridin-8-yl)-N-ethylimidazo[1,2-c]pyrimidine-2-carboxamide], the Ki (Adenosine A2A receptor) is reported as under 10 nM and the EC50 [1] is reported as 10 to 100 nM.

`CCNC(=O)c1cn2c(N)nc(-c3cccc(C#N)c3)c(C3CC3)c2n1` [Example 40, 5-Amino-7-(3-cyanophenyl)-8-cyclopropyl-N-ethylimidazo[1,2-c]pyrimidine-2-carboxamide] gave a Ki (Adenosine A2A receptor) of 10 to 100 nM and an EC50 [1] of over 1000 nM.

`N#Cc1cccc(-c2nc(N)n3nc(Cc4ccccn4)nc3c2-c2ccncn2)c1` [Example 41, 3-(5-Amino-2-(pyridin-2-ylmethyl)-8-(pyrimidin-4-yl)-[1,2,4]triazolo[1,5-c]pyrimidin-7-yl)benzonitrile] showed a Ki (Adenosine A2A receptor) of under 10 nM and an EC50 [1] of under 10 nM.

`CCn1nccc1-c1c(-c2cccc(C#N)c2)nc(N)n2nc(Cc3ccccn3)nc12` [Example 42, 3-(5-Amino-8-(1-ethyl-1H-pyrazol-5-yl)-2-(pyridin-2-ylmethyl)-[1,2,4]triazolo[1,5-c]pyrimidin-7-yl)benzonitrile] gave a Ki (Adenosine A2A receptor) of under 10 nM and an EC50 [1] of under 10 nM.

`CCCn1nccc1-c1c(-c2cccc(C#N)c2)nc(N)n2nc(Cc3ccccn3)nc12` [Example 43, 3-(5-Amino-8-(1-propyl-1H-pyrazol-5-yl)-2-(pyridin-2-ylmethyl)-[1,2,4]triazolo[1,5-c]pyrimidin-7-yl)benzonitrile] was tested, and the Ki (Adenosine A2A receptor) was under 10 nM and the EC50 [1] was under 10 nM.

`N#Cc1cccc(-c2nc(N)n3nc(Cc4ccccn4)nc3c2-c2cccc3ncccc23)c1` [Example 44, 3-(5-Amino-2-(pyridin-2-ylmethyl)-8-(quinolin-5-yl)-[1,2,4]triazolo[1,5-c]pyrimidin-7-yl)benzonitrile] gave a Ki (Adenosine A2A receptor) of under 10 nM and an EC50 [1] of 10 to 100 nM.

With `N#Cc1cccc(-c2nc(N)n3nc(C(O)c4ccccc4)nc3c2-c2ncncc2F)c1` (stereo not shown) [Example 45, 3-(5-Amino-8-(5-fluoropyrimidin-4-yl)-2-(hydroxy(phenyl)methyl)-[1,2,4]triazolo[1,5-c]pyrimidin-7-yl)benzonitrile] the Ki (Adenosine A2A receptor) was under 10 nM and the EC50 [1] was under 10 nM.

`N#Cc1cccc(-c2nc(N)n3nc(Cc4ccccn4)nc3c2-c2ncncc2F)c1` [Example 46, 3-(5-Amino-8-(5-fluoropyrimidin-4-yl)-2-(pyridin-2-ylmethyl)-[1,2,4]triazolo[1,5-c]pyrimidin-7-yl)benzonitrile] showed a Ki (Adenosine A2A receptor) of under 10 nM and an EC50 [1] of under 10 nM.

`N#Cc1cccc(-c2nc(N)n3nc(C(NCCO)c4ccccc4)nc3c2-c2ccncc2)c1` (stereo not shown) [Example 47, 3-(5-Amino-2-((2-hydroxyethylamino)(phenyl)methyl)-8-(pyridin-4-yl)-[1,2,4]triazolo[1,5-c]pyrimidin-7-yl)benzonitrile] gave a Ki (Adenosine A2A receptor) of under 10 nM and an EC50 [1] of under 10 nM.

`CCn1nccc1-c1c(-c2cccc(C#N)c2)nc(N)n2nc(CC3CCCCC3)nc12` [Example 48, 3-(5-Amino-2-(cyclohexylmethyl)-8-(1-ethyl-1H-pyrazol-5-yl)-[1,2,4]triazolo[1,5-c]pyrimidin-7-yl)benzonitrile] was tested, and the Ki (Adenosine A2A receptor) was under 10 nM and the EC50 [1] was 10 to 100 nM.

With `N#Cc1cccc(-c2nc(N)n3nc(Cc4ccccc4F)nc3c2-c2ccncn2)c1` [Example 49, 3-(5-Amino-2-(2-fluorobenzyl)-8-(pyrimidin-4-yl)-[1,2,4]triazolo[1,5-c]pyrimidin-7-yl)benzonitrile] the Ki (Adenosine A2A receptor) was under 10 nM and the EC50 [1] was under 10 nM.

With `N#Cc1cccc(-c2nc(N)n3nc(C(O)c4ccccc4F)nc3c2-c2ccncn2)c1` (stereo not shown) [Example 50, 3-(5-Amino-2-((2-fluorophenyl)(hydroxy)methyl)-8-(pyrimidin-4-yl)-[1,2,4]triazolo[1,5-c]pyrimidin-7-yl)benzonitrile] the Ki (Adenosine A2A receptor) was under 10 nM and the EC50 [1] was under 10 nM.

With `Cc1cccc(Cc2nc3c(-c4ccncn4)c(-c4cccc(C#N)c4)nc(N)n3n2)n1` [Example 51, 3-(5-Amino-2-((6-methylpyridin-2-yl)methyl)-8-(pyrimidin-4-yl)-[1,2,4]triazolo[1,5-c]pyrimidin-7-yl)benzonitrile] the Ki (Adenosine A2A receptor) was under 10 nM and the EC50 [1] was 10 to 100 nM.

`CCn1nccc1-c1c(-c2cccc(C#N)c2)nc(N)n2nc(Cc3ncccc3F)nc12` [Example 52, 3-(5-Amino-8-(1-ethyl-1H-pyrazol-5-yl)-2-((3-fluoropyridin-2-yl)methyl)-[1,2,4]triazolo[1,5-c]pyrimidin-7-yl)benzonitrile] gave a Ki (Adenosine A2A receptor) of under 10 nM and an EC50 [1] of under 10 nM.

In the case of `CCn1nccc1-c1c(-c2cccc(C#N)c2)nc(N)n2nc(Cc3ncccc3OC)nc12` [Example 53, 3-(5-Amino-8-(1-ethyl-1H-pyrazol-5-yl)-2-((3-methoxypyridin-2-yl)methyl)-[1,2,4]triazolo[1,5-c]pyrimidin-7-yl)benzonitrile], the Ki (Adenosine A2A receptor) is reported as under 10 nM and the EC50 [1] is reported as 10 to 100 nM.
